How the values were obtained:
[1] = system: S. pneumoniae D39V; assay: Bliss interaction score (quartile over a dose matrix) (fitness difference); higher = more antagonism (negative = synergy)
Outline: (§1)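 Quartiles of the Bliss score were taken over technical, biological and donor/recipient replicates. That score is observed fitness minus the product of the single-drug fitness values, which were inferred from combination data. Fitness itself is OD595 at entry into stationary phase divided by the plate's robust no-drug mean, with a cap at 1.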

[2] = system: B. subtilis 168; assay: as above
Outline: as §1

[3] = system: S. aureus DSM 20231; assay: as above
Outline: as §1

[4] = system: S. aureus Newman; assay: fitness (endpoint OD595 vs no drug) (fraction); higher = more growth; details: main component drawn
Outline: (§2)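 Fitness compares growth at the stationary-phase transition with the robust mean of no-drug control wells, as a ratio of optical densities. The ratio is capped at 1. Wells of 384-well plates held 30 µl, or 55 µl for S. pneumoniae, inoculated at OD595 0.01. Readings at OD595 every 30 min for 14 h at 37 °C were corrected against the first reading.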

[5] = system: S. aureus DSM 20231; assay: as above
Outline: as §2

[6] = first compound 0.75 µg/mL, partner 0.5 µg/mL
[7] = first compound 0.75 µg/mL, partner 1 µg/mL
[8] = first compound 1.5 µg/mL, partner 0.5 µg/mL
[9] = first compound 3 µg/mL, partner 0.5 µg/mL
[10] = first compound 3 µg/mL, partner 1 µg/mL
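Wherever Bliss interaction score (quartile over a dose matrix) is given: first quartile when negative (synergy) and third quartile when positive (antagonism).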

## O=C(N[C@H](CO)[C@H](O)c1ccc([N+](=O)[O-])cc1)C(Cl)Cl [Chloramphenicol] + CC(C1CCC(C(O1)OC2C(CC(C(C2O)OC3C(C(C(CO3)(C)O)NC)O)N)N)N)NC [Gentamicin]
[1]; main component drawn
  Bliss interaction score: -0.162
[2]; main component drawn
  Bliss interaction score: 0.13
[3]; main component drawn
  Bliss interaction score: 0.0877
[4]; first compound 0.75 µg/mL, partner 0.375 µg/mL
  fitness: 0.778
[4]; [6]
  fitness: 0.868
[4]; first compound 0.75 µg/mL, partner 0.75 µg/mL
  fitness: 0.778
[4]; [7]
  fitness: 0.974
[4]; first compound 0.75 µg/mL, partner 1.5 µg/mL
  fitness: 0.765
[4]; first compound 0.75 µg/mL, partner 2 µg/mL
  fitness: ≥ 1
[4]; first compound 1.5 µg/mL, partner 0.375 µg/mL
  fitness: 0.507
[4]; [8]
  fitness: 0.775
[4]; first compound 1.5 µg/mL, partner 0.75 µg/mL
  fitness: 0.543
[4]; first compound 1.5 µg/mL, partner 1 µg/mL
  fitness: 0.893
[4]; first compound 1.5 µg/mL, partner 1.5 µg/mL
  fitness: 0.561
[4]; first compound 1.5 µg/mL, partner 2 µg/mL
  fitness: 0.871
[4]; first compound 3 µg/mL, partner 0.375 µg/mL
  fitness: 0.208
[4]; [9]
  fitness: 0.436
[4]; first compound 3 µg/mL, partner 0.75 µg/mL
  fitness: 0.223
[4]; [10]
  fitness: 0.487
[4]; first compound 3 µg/mL, partner 1.5 µg/mL
  fitness: 0.231
[4]; first compound 3 µg/mL, partner 2 µg/mL
  fitness: 0.512

## O=C(N[C@H](CO)[C@H](O)c1ccc([N+](=O)[O-])cc1)C(Cl)Cl [Chloramphenicol] + COc1cc(Cc2cnc(N)nc2N)cc(OC)c1OC [Trimethoprim]
[1]
  Bliss interaction score: -0.081
[2]
  Bliss interaction score: 0.0616
[3]
  Bliss interaction score: 0.133
[5]; first compound 0.75 µg/mL, partner 0.125 µg/mL
  fitness: 0.613
[5]; first compound 0.75 µg/mL, partner 0.25 µg/mL
  fitness: 0.648
[5]; [6]
  fitness: 0.48
[5]; [7]
  fitness: 0.0816
[5]; first compound 1.5 µg/mL, partner 0.125 µg/mL
  fitness: 0.499
[5]; first compound 1.5 µg/mL, partner 0.25 µg/mL
  fitness: 0.492
[5]; [8]
  fitness: 0.405
[5]; first compound 3 µg/mL, partner 0.125 µg/mL
  fitness: 0.0821
[5]; first compound 3 µg/mL, partner 0.25 µg/mL
  fitness: 0.0908
[5]; [9]
  fitness: 0.0866
[5]; [10]
  fitness: 0.0882

## O=C(N[C@H](CO)[C@H](O)c1ccc([N+](=O)[O-])cc1)C(Cl)Cl [Chloramphenicol] + C[C@H]1COc2c(N3CCN(C)CC3)c(F)cc3c(=O)c(C(=O)O)cn1c23 [Levofloxacin]
[1]
  Bliss interaction score: 0.0655
[2]
  Bliss interaction score: 0.0387
[3]
  Bliss interaction score: 0.0741

## CCN(CC)CCOc1ccc(C(=C(Cl)c2ccccc2)c2ccccc2)cc1 [Clomiphene] + CCC(C)C1C(=O)NC(=C)C(=O)NC(C(=O)NC(CSCC(C(=O)N1)NC(=O)/C(=C/C)/NC(=O)C(C(C)CC)N)C(=O)NC2C(SCC(NC(=O)CNC(=O)C3CCCN3C2=O)C(=O)NC(CCCCN)C(=O)NC4C(SCC(NC(=O)CNC(=O)C(NC(=O)C(NC(=O)C(NC(=O)CNC4=O)C)CC(C)C)CCSC)C(=O)NC(CC(=O)N)C(=O)NC(CCSC)C(=O)NC(CCCCN)C(=O)NC5C(SCC6C(=O)NC(C(=O)NC(CSC(C(C(=O)N6)NC(=O)C(NC5=O)C)C)C(=O)NC(CO)C(=O)NC(C(C)CC)C(=O)NC(CC7=CN=CN7)C(=O)NC(C(C)C)C(=O)NC(=C)C(=O)NC(CCCCN)C(=O)O)CC8=CN=CN8)C)C)C)CC(C)C [Nisin]
[3]; main component drawn
  Bliss interaction score: -0.384

## CCN(CC)CCOc1ccc(C(=C(Cl)c2ccccc2)c2ccccc2)cc1 [Clomiphene] + CN[C@@H]1[C@H](O[C@H]2[C@H](O[C@H]3[C@H](O)[C@@H](O)[C@H](N=C(N)N)[C@@H](O)[C@@H]3N=C(N)N)O[C@@H](C)[C@]2(O)C=O)O[C@@H](CO)[C@H](O)[C@H]1O [Streptomycin]
[3]
  Bliss interaction score: 0.238

## CCN(CC)CCOc1ccc(C(=C(Cl)c2ccccc2)c2ccccc2)cc1 [Clomiphene] + COc1cc(Cc2cnc(N)nc2N)cc(OC)c1OC [Trimethoprim]
[3]
  Bliss interaction score: 0.216

## CCN(CC)CCOc1ccc(C(=C(Cl)c2ccccc2)c2ccccc2)cc1 [Clomiphene] + Cn1nnc(-c2ccc(-c3ccc(N4C[C@H](CO)OC4=O)cc3F)cn2)n1 [Tedizolid]
[3]
  Bliss interaction score: 0.263

## CCN(CC)CCOc1ccc(C(=C(Cl)c2ccccc2)c2ccccc2)cc1 [Clomiphene] + N[C@@H]1CONC1=O [CycloserineD]
[3]
  Bliss interaction score: -0.175

## CCN(CC)CCOc1ccc(C(=C(Cl)c2ccccc2)c2ccccc2)cc1 [Clomiphene] + O=C(O[C@@H]1Cc2c(O)cc(O)cc2O[C@@H]1c1cc(O)c(O)c(O)c1)c1cc(O)c(O)c(O)c1 [EGCG]
[3]
  Bliss interaction score: 0.241

## N[C@@H]1CONC1=O [CycloserineD] + Cc1c(Cl)cccc1Nc1ccccc1C(=O)O [Tolfenamic]
[3]
  Bliss interaction score: -0.218

## N[C@@H]1CONC1=O [CycloserineD] + O=C(O)c1cc(-c2ccc(F)cc2F)ccc1O [Diflunisal]
[3]
  Bliss interaction score: -0.151

## O=C(O[C@@H]1Cc2c(O)cc(O)cc2O[C@@H]1c1cc(O)c(O)c(O)c1)c1cc(O)c(O)c(O)c1 [EGCG] + CN1CCC[C@H]1c1cccnc1 [Nicotine]
[3]
  Bliss interaction score: -0.157

## CC(=O)O[C@H]1C[C@@]2(C)[C@@H](C[C@@H](O)[C@H]3[C@@]4(C)CC[C@@H](O)[C@@H](C)[C@@H]4CC[C@@]32C)/C1=C(\CCC=C(C)C)C(=O)O [Fusidic acid] + CC(C)(O)c1ccccc1CC[C@@H](SCC1(CC(=O)O)CC1)c1cccc(/C=C/c2ccc3ccc(Cl)cc3n2)c1 [Montelukast]
[3]
  Bliss interaction score: -0.241

## CC(=O)O[C@H]1C[C@@]2(C)[C@@H](C[C@@H](O)[C@H]3[C@@]4(C)CC[C@@H](O)[C@@H](C)[C@@H]4CC[C@@]32C)/C1=C(\CCC=C(C)C)C(=O)O [Fusidic acid] + C[C@H]1C[C@@H]2[C@H]([C@@H](O)C[C@@]3(C)[C@H]2CC[C@]3(O)C(=O)CO)[C@@]2(C)C=CC(=O)C=C12 [Methylprednisolone]
[3]
  Bliss interaction score: -0.127

## CC(=O)O[C@H]1C[C@@]2(C)[C@@H](C[C@@H](O)[C@H]3[C@@]4(C)CC[C@@H](O)[C@@H](C)[C@@H]4CC[C@@]32C)/C1=C(\CCC=C(C)C)C(=O)O [Fusidic acid] + Cc1c(Cl)cccc1Nc1ccccc1C(=O)O [Tolfenamic]
[3]
  Bliss interaction score: 0.16

## CCC[C@@H]1C[C@@H](C(=O)N[C@@H]([C@H]2O[C@H](SC)[C@H](O)[C@@H](O)[C@H]2O)[C@@H](C)O)N(C)C1 [Lincomycin] + CC(C)(O)c1ccccc1CC[C@@H](SCC1(CC(=O)O)CC1)c1cccc(/C=C/c2ccc3ccc(Cl)cc3n2)c1 [Montelukast]
[3]
  Bliss interaction score: -0.268

## CCC[C@@H]1C[C@@H](C(=O)N[C@@H]([C@H]2O[C@H](SC)[C@H](O)[C@@H](O)[C@H]2O)[C@@H](C)O)N(C)C1 [Lincomycin] + CCCSc1nc(N[C@@H]2C[C@H]2c2ccc(F)c(F)c2)c2nnn([C@@H]3C[C@H](OCCO)[C@@H](O)[C@H]3O)c2n1 [Ticagrelor]
[3]
  Bliss interaction score: -0.385

## CCC[C@@H]1C[C@@H](C(=O)N[C@@H]([C@H]2O[C@H](SC)[C@H](O)[C@@H](O)[C@H]2O)[C@@H](C)O)N(C)C1 [Lincomycin] + C[C@H]1C[C@@H]2[C@H]([C@@H](O)C[C@@]3(C)[C@H]2CC[C@]3(O)C(=O)CO)[C@@]2(C)C=CC(=O)C=C12 [Methylprednisolone]
[3]
  Bliss interaction score: -0.248

## CCC[C@@H]1C[C@@H](C(=O)N[C@@H]([C@H]2O[C@H](SC)[C@H](O)[C@@H](O)[C@H]2O)[C@@H](C)O)N(C)C1 [Lincomycin] + Cc1c(C)c2c(c(C)c1O)CCC(C)(COc1ccc(CC3SC(=O)NC3=O)cc1)O2 [Troglitazone]
[3]
  Bliss interaction score: 0.222

## CCC[C@@H]1C[C@@H](C(=O)N[C@@H]([C@H]2O[C@H](SC)[C@H](O)[C@@H](O)[C@H]2O)[C@@H](C)O)N(C)C1 [Lincomycin] + Cc1c(Cl)cccc1Nc1ccccc1C(=O)O [Tolfenamic]
[3]
  Bliss interaction score: -0.244

## CCC[C@@H]1C[C@@H](C(=O)N[C@@H]([C@H]2O[C@H](SC)[C@H](O)[C@@H](O)[C@H]2O)[C@@H](C)O)N(C)C1 [Lincomycin] + Cc1cccc(CN2CCN(C(c3ccccc3)c3ccc(Cl)cc3)CC2)c1 [Meclizine]
[3]
  Bliss interaction score: 0.278

## CCC[C@@H]1C[C@@H](C(=O)N[C@@H]([C@H]2O[C@H](SC)[C@H](O)[C@@H](O)[C@H]2O)[C@@H](C)O)N(C)C1 [Lincomycin] + O=C(O)Cc1cc(I)c(Oc2ccc(O)c(I)c2)c(I)c1 [Tiratricol]
[3]
  Bliss interaction score: 0.233

## COc1c(N2C[C@@H]3CCCN[C@@H]3C2)c(F)cc2c(=O)c(C(=O)O)cn(C3CC3)c12 [Moxifloxacin] + Cc1c(Cl)cccc1Nc1ccccc1C(=O)O [Tolfenamic]
[3]
  Bliss interaction score: -0.12

## O=C1CN(/N=C/c2ccc([N+](=O)[O-])o2)C(=O)N1 [Nitrofurantoin] + CCCSc1nc(N[C@@H]2C[C@H]2c2ccc(F)c(F)c2)c2nnn([C@@H]3C[C@H](OCCO)[C@@H](O)[C@H]3O)c2n1 [Ticagrelor]
[3]
  Bliss interaction score: -0.277

## O=C1CN(/N=C/c2ccc([N+](=O)[O-])o2)C(=O)N1 [Nitrofurantoin] + CCCc1nc2c(C)cc(-c3nc4ccccc4n3C)cc2n1Cc1ccc(-c2ccccc2C(=O)O)cc1 [Telmisartan]
[3]
  Bliss interaction score: -0.216

## C/C(=C\C(=O)OCCCCCCCCC(=O)O)C[C@@H]1OC[C@H](C[C@@H]2O[C@H]2[C@@H](C)[C@H](C)O)[C@@H](O)[C@H]1O [Pseudomonic acid] + CCCSc1nc(N[C@@H]2C[C@H]2c2ccc(F)c(F)c2)c2nnn([C@@H]3C[C@H](OCCO)[C@@H](O)[C@H]3O)c2n1 [Ticagrelor]
[3]
  Bliss interaction score: 0.241

From the supplement of paper PMC10627819
